In US20060223812A1, “Treating neurodegenerative conditions” (MAX-PLANCK-GESELLSCHAFT ZUR FORDERUNGDER WISSENSCHAFTEN, …, priority 2004, published 2006):
Like-named read-outs stand apart in the source and are kept apart here.

Columns and labels:
Assay type in all cases: biochemical
PHFs from K19 = target: T1, PHFs from K19 (Homo sapiens, UniProt P10636); test: Thioflavine S assay, depolymerisation of pre-formed PHFs, K19
T1 construct: construct K19 containing three repeats; made in house; host or cells: E. coli
Experimental: Depolymerisation of PHFs was monitored by the thioflavine S fluorescence. 60 μM of each compound was tested for its ability to depolymerise pre-formed PHFs. 50 mM NH4Ac, 10 μM PHF (K19), 60 μM compound and 5 μM heparin were mixed in 50 μl volume in a 384 well plate (black microtiter 384 plate round well, ThermoLabsystems, Dreiich, Germany) and incubated overnight at 37° C. As a control the reaction mixture without compound was treated in the same way.
After incubation thioflavine S was added to the buffer to a final concentration of 20 μM and the signal was measured at excitation at 440 nm and emission at 521 nm in a spectrofluorimeter (Ascent; Labsystems, Frankfurt).
(§1) The ThS assay was used to analyse the ability of the five compounds (see Example 4) to depolymerise pre-formed PHFs made from the repeat domain constructs K19 and K18 as well as from isoforms htau23 and htau24, containing 3 or 4 repeats, respectively.
(§2) The depolymerisation of K19 filaments (FIG. 4A) followed a similar concentration dependence as the inhibition experiment, with consistently similar or slightly higher DC50 values than the corresponding IC50 concentrations (Table 2). The ratios of IC50/DC50 range from 0.2-1.2. […] Here, too, the concentration dependence for K19 was steeper than for K18 (compare FIGS. 4A, B), similar to that of assembly inhibition (FIGS. 2A, B).
(§3) Tau constructs and isoforms K19, K18, hTau23, hTau24 (10 μM) were first aggregated into PHFs for 48 hours in the presence of 2.5 μM heparin (except K18/ΔK280) and the polymers separated from the soluble tau by centrifugation of 1 h at 100,000 g, redissolved and then exposed to the inhibitors overnight at 37° C. at the indicated concentrations (range 0.001-200 μM). The compounds are capable of disassembling PHFs with varying efficiencies (see Table 2).

htau24 = target: T2, htau24 (Homo sapiens, UniProt P10636); test: Thioflavine S assay, inhibition of PHF formation, htau24; details: for IC50: ThS fluorescence, read-out: Inhibition of tau aggregation IC50, hTau24; for inhibition at 60 µM: read-out: inhibition of PHF formation, htau24; for effect on PHF formation, htau24: compared to htau23
T2 construct: made in house; host or cells: E. coli
Experimental: (§4) Assembly of synthetic PHFs of tau protein (K19, 10 μM) was performed at 37° C. in the presence of polyanions (heparin; 5 μM) in 50 mM NH4Ac, pH 6.8. Assembly was followed either qualitatively by electron microscopy or quantitatively by fluorescence assay using thioflavine S. PHF-formation of tau isoforms htau23 and htau24 was carried out in PBS-buffer pH 7.4, 50 μM protein, and 12.5 μM heparin. The samples were incubated at 50° C. for 10 days. In the case of htau24 and K18, DTT was added at a final concentration of 1 mM each day in order to avoid intra-molecular disulfide crosslinking (Barghorn et al., 2000).

PHFs from K18 = target: T3, PHFs from K18 (Homo sapiens, UniProt P10636); test: Thioflavine S assay, depolymerisation of pre-formed PHFs, K18
T3 construct: made in house; host or cells: E. coli
Description: as §1, §2, §3

htau23 = target: T4, htau23 (Homo sapiens, UniProt P10636); test: Thioflavine S assay, inhibition of PHF formation, htau23; details: for inhibition at 0.1 µM / inhibition at 60 µM: read-out: inhibition of PHF formation, htau23; for effect on PHF formation, htau23: low concentration
T4 construct: made in house; host or cells: E. coli
Experimental: as §4

[1] = target: T5, four repeat construct K18 (Homo sapiens, UniProt P10636); test: Thioflavine S assay, inhibition of PHF formation, K18
T5 construct: made in house; host or cells: E. coli
Experimental: as §4
PHF formation was monitored by a thioflavine S fluorescence assay (Friedhoff et al., 1998a) adapted to a 384 well format. 60 μM of each substance was tested for its inhibitory effect on PHF formation. Using an automated pipetting system (Cybi-Well, CyBio, Jena, Germany) 50 mM NH4AC, 10 μM protein (K19), 60 μM compound and 5 μM heparin were mixed in 50 μl volume in a 384 well plate (black microtiter 384 plate round well, ThermoLabsystems, Dreiich, Germany) and incubated overnight at 37° C. As a control the protein was replaced with H2O to measure the possible fluorescence of the compounds. As a second control the reaction mixture without compound was treated in the same way.
After incubation with the compounds thioflavine S was added to the buffer to a final concentration of 20 μM and the signal was measured at excitation at 440 nm and emission at 521 nm in a spectrofluorimeter (Ascent; Labsystems, Frankfurt).
The four repeat construct K18 was tested under the same conditions (FIG. 2B). […] However, the decay of the curves of K18 is more gradual than those of K19, extending over 3-4 orders of magnitude of compound concentration (compare FIG. 2A).

PHFs from htau23 = target: T6, PHFs from htau23 (Homo sapiens, UniProt P10636); test: Thioflavine S assay, depolymerisation of pre-formed PHFs, htau23
T6 construct: made in house; host or cells: E. coli
Experimental: as §1
PHFs assembled from the full length three repeat isoform htau23 were also sensitive to disaggregation (FIG. 4C). The DC50 values ranged from 7.0 to 60 μM.
as §3, with “μM).” for “μM). The compounds are capable of disassembling PHFs with varying efficiencies (see Table 2).”

[2] = ThS fluorescence, overnight 37° C., read-out: Depolymerisation of PHFs DC50, K19
[3] = ThS fluorescence, overnight 37° C., read-out: Depolymerisation of PHFs DC50, K18
[4] = ThS fluorescence, read-out: Inhibition of tau aggregation IC50, hTau23
[5] = ThS fluorescence, K18, heparin, read-out: Inhibition of tau aggregation IC50, K18
[6] = ThS fluorescence, read-out: Depolymerisation of PHFs DC50, hTau23

T1 sequence (P10636 with tags, fused parts or gaps isoform P10636-2 limits assumed): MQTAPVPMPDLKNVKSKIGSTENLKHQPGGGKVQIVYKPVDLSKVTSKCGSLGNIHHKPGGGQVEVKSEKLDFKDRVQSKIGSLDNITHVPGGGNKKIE
T3 sequence (P10636 561-685 limits assumed): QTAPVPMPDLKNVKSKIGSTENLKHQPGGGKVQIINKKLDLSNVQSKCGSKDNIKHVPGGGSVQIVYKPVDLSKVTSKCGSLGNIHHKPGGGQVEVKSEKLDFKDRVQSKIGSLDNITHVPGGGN
T5 sequence (P10636 561-685 limits assumed): as above
T2 sequence (P10636 1-383 isoform P10636-6): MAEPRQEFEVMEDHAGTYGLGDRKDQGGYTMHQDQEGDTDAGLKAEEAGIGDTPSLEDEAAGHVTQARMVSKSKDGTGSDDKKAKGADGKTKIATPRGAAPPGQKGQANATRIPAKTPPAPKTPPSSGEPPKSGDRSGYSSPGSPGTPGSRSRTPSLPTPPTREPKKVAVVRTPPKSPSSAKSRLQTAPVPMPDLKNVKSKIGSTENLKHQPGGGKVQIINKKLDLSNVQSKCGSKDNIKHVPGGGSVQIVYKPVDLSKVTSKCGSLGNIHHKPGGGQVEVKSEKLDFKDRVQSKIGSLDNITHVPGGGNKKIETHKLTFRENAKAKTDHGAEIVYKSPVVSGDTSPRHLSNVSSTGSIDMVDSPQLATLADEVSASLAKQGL
T6 sequence (P10636 1-352 isoform P10636-2): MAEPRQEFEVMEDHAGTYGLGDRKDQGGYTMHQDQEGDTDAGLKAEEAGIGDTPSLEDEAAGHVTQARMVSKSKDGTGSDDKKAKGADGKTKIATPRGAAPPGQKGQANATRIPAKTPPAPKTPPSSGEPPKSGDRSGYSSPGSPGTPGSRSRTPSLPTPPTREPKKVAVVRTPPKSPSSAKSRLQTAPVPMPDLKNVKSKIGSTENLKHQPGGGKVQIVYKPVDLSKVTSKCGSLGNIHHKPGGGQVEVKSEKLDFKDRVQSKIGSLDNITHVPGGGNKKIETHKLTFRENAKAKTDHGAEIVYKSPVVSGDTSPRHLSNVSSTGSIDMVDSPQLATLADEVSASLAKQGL
T4 sequence (P10636 1-352 isoform P10636-2): as above

Row | Compound | DC50 (PHFs from K19; read-out: Depolymerisation of PHFs DC50, K19, ThS fluorescence, overnight 37° C.) [nM] | IC50 (htau24) [nM] | DC50 (PHFs from K18; read-out: Depolymerisation of PHFs DC50, K18, ThS fluorescence, overnight 37° C.) [nM] | IC50 (htau23) [nM] | IC50 [1] [nM] | DC50 (PHFs from htau23; read-out: Depolymerisation of PHFs DC50, hTau23, ThS fluorescence) [nM] | DC50 (PHFs from K19; [2]) [nM] | inhibition at 60 µM (htau24) [%] | DC50 (PHFs from K18; [3]) [nM] | IC50 (htau23; [4]) [nM] | inhibition at 0.1 µM (htau23) [%] | inhibition at 60 µM (htau23) [%] | IC50 [1, 5] [nM] | DC50 (PHFs from htau23; [6]) [nM] | inhibition at 60 µM (htau24; 60 μM compound) [%] | inhibition at 0.1 µM (htau23; 0.1 μM compound) [%] | inhibition at 60 µM (htau23; 60 μM compound) [%] | effect on PHF formation, htau24 (htau24) | effect on PHF formation, htau23 (htau23)
1 | COc1cccc2c1C(=O)c1c(O)c3c(c(O)c1C2=O)CC(O)(C(=O)CO)CC3OC1CC(N)C(O)C(C)O1 (stereo not drawn) [Adriamycin, 10-(4-Amino-5-hydroxy-6-methyl-tetrahydro-pyran-2-yloxy)-6,8,11-trihydroxy-8-(2-hydroxyethanoyl)-1-methoxy-7,8,9,10-tetrahydro-naphthacene-5,12-dione, reference compound] | 27000 | 2700 | 4300 | 200 | 100 | 13200 | – | – | – | – | – | – | – | – | – | – | – | – | –
2 | COc1cccc2c1C(=O)c1c(O)c3c(c(O)c1C2=O)CC(O)(C(C)=O)CC3OC1CC(N)C(O)C(C)O1 (stereo not drawn) [Daunorubicin, 8-Acetyl-10-(4-amino-5-hydroxy-6-methyl-tetrahydro-pyran-2-yloxy)-6,8,11-trihydroxy-1-methoxy-7,8,9,10-tetrahydro-naphthacene-5,12-dione, reference compound] | – | 3400 | – | – | – | – | 3100 | 70 to 90 | 4000 | 100 | ~50 | ~90 | 300 | 8200 | – | – | – | – | –
3 | Cc1cc(O)c2c(c1)C(=O)c1cc(O)cc(O)c1C2=O [Emodin, 1,3,8-Trihydroxy-6-methyl-anthraquinone] | – | 1800 | – | – | – | – | 2000 | – | 2000 | 200 | – | – | 300 | 7000 | 70 to 90 | ~50 | ~90 | – | –
4 | O=C(c1ccccc1)c1ccc(O)c(O)c1O [PHF005, 1-Phenyl-1-(2,3,4-trihydroxy-phenyl)-methanone] | – | > 100000 | – | – | – | – | 9400 | – | 20800 | 1100 | – | – | 2700 | > 60000 | – | – | ~50 | only a small effect | only a slight effect
5 | O=C1c2ccc(O)c(O)c2C(=O)c2c(O)ccc(O)c21 [PHF016, 1,2,5,8-Tetrahydroxy-anthraquinone] | – | > 60000 | – | – | – | – | 7800 | – | 7300 | 1000 | – | – | 600 | > 60000 | – | – | ~50 | only a small effect | only a slight effect
